Test results from PubChem BioAssay (NCI).
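96-well plates; 48 h exposure; 5 concentrations. Endpoints by linear interpolation between flanking doses. Not reached: highest tested concentration assigned. GI50: concentration for 50% inhibition of growth. TGI is the concentration that stops growth completely.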

Columns and labels:
Assay in all cases: NCI tumour cell line growth inhibition, 48 h
[1] = tested on: LOX IMVI melanoma
[2] = tested on: SF-295 CNS
[3] = tested on: OVCAR-4 ovarian
[4] = tested on: CAKI-1 renal
[5] = tested on: HT29 colon
[6] = tested on: NCI-H522 lung
[7] = tested on: BT-549 breast
[8] = tested on: 786-0 renal
[9] = tested on: K-562 leukemia
[10] = tested on: TK-10 renal
[11] = tested on: UACC-62 melanoma
[12] = tested on: SK-MEL-28 melanoma
[13] = tested on: MDA-MB-231 breast
[14] = tested on: SK-MEL-5 melanoma
[15] = tested on: PC-3 prostate
[16] = tested on: MOLT-4 leukemia
[17] = tested on: NCI/ADR-RES ovarian
[18] = tested on: RPMI-8226 leukemia
[19] = tested on: UACC-257 melanoma
[20] = tested on: SR leukemia
[21] = tested on: RXF 393 renal
[22] = tested on: SK-OV-3 ovarian
[23] = tested on: UO-31 renal
[24] = tested on: HL-60(TB) leukemia
[25] = tested on: HOP-92 NSCLC
[26] = tested on: HCC-2998 colon
[27] = tested on: SNB-75 CNS
[28] = tested on: SF-539 CNS
[29] = tested on: MALME-3M melanoma
[30] = tested on: U251 CNS
[31] = tested on: DU-145 prostate
[32] = tested on: NCI-H23 lung
[33] = tested on: MDA-MB-435
[34] = tested on: MCF7 breast
[35] = tested on: HS 578T breast
[36] = tested on: A549 NSCLC
[37] = tested on: COLO 205 colon
[38] = tested on: IGROV1 ovarian
[39] = tested on: OVCAR-3 ovarian
[40] = tested on: HCT-15 colon
[41] = tested on: SN12C renal
[42] = tested on: T-47D breast
[43] = tested on: SK-MEL-2 melanoma
[44] = tested on: A498 renal
[45] = tested on: SNB-19 CNS
[46] = tested on: OVCAR-8 ovarian
[47] = tested on: NCI-H226 lung
[48] = tested on: KM12 colon
[49] = tested on: HCT-116 colon
[50] = tested on: ACHN renal
[51] = tested on: CCRF-CEM leukemia
[52] = tested on: HOP-62 NSCLC
[53] = tested on: SW-620 colon
[54] = tested on: SF-268 CNS
[55] = tested on: NCI-H460 lung
[56] = tested on: OVCAR-5 ovarian

CCc1ccc(CNCC(O)c2ccccc2)cc1 (configuration not stated)
GI50 [1]: 16.4 µM
TGI [1]: 34 µM
GI50 [2]: 16.5 µM
TGI [2]: 35.5 µM
GI50 [3]: 29.6 µM
TGI [3]: > 100 µM
GI50 [4]: 25.4 µM
TGI [4]: > 100 µM
GI50 [5]: 21.5 µM
TGI [5]: 68.4 µM
GI50 [6]: 24.7 µM
TGI [6]: 70.5 µM
GI50 [7]: 8.3 µM
TGI [7]: > 100 µM
GI50 [8]: 20.1 µM
TGI [8]: 53.8 µM
GI50 [9]: 7.85 µM
TGI [9]: 62.6 µM
GI50 [10]: 34.2 µM
TGI [10]: > 100 µM
GI50 [11]: 16.5 µM
TGI [11]: 32.4 µM
GI50 [12]: 14.5 µM
TGI [12]: 28.7 µM
GI50 [13]: 13.2 µM
TGI [13]: 35.7 µM
GI50 [14]: 15.7 µM
TGI [14]: 29.2 µM
GI50 [15]: 34.8 µM
TGI [15]: > 100 µM
GI50 [16]: 21.8 µM
TGI [16]: 54.5 µM
GI50 [17]: 20.8 µM
TGI [17]: 71.2 µM
GI50 [18]: 22.7 µM
TGI [18]: 53.3 µM
GI50 [19]: 16.2 µM
TGI [19]: 35.7 µM
GI50 [20]: 13.5 µM
TGI [20]: 49.2 µM
GI50 [21]: 14.3 µM
TGI [21]: 45.5 µM
GI50 [22]: 63 µM
TGI [22]: > 100 µM
GI50 [23]: 18.9 µM
TGI [23]: > 100 µM
GI50 [24]: 23.4 µM
TGI [24]: 68.6 µM
GI50 [25]: 6.14 µM
TGI [25]: 38.1 µM
GI50 [26]: 17.9 µM
TGI [26]: 36.8 µM
GI50 [27]: 5.39 µM
TGI [27]: 42.2 µM
GI50 [28]: 16.5 µM
TGI [28]: 39.5 µM
GI50 [29]: 14.8 µM
TGI [29]: 31.2 µM
GI50 [30]: 17.7 µM
TGI [30]: 43.1 µM
GI50 [31]: 35.5 µM
TGI [31]: > 100 µM
GI50 [32]: 49.2 µM
TGI [32]: > 100 µM
GI50 [33]: 6.93 µM
TGI [33]: 20.1 µM
GI50 [34]: 15.5 µM
TGI [34]: 34.2 µM
GI50 [35]: 28.1 µM
TGI [35]: > 100 µM
GI50 [36]: 39.2 µM
TGI [36]: > 100 µM
GI50 [37]: 16.6 µM
TGI [37]: 33 µM
GI50 [38]: 47.8 µM
TGI [38]: > 100 µM
GI50 [39]: 25.2 µM
TGI [39]: 79.2 µM
GI50 [40]: 17.3 µM
TGI [40]: 53 µM
GI50 [41]: 33.5 µM
TGI [41]: > 100 µM
GI50 [42]: 20.2 µM
TGI [42]: 51.9 µM
GI50 [43]: 17.2 µM
TGI [43]: 33.7 µM
GI50 [44]: 5.14 µM
TGI [44]: 47.2 µM
GI50 [45]: 46.9 µM
TGI [45]: > 100 µM
GI50 [46]: 26.5 µM
TGI [46]: > 100 µM
GI50 [47]: > 100 µM
TGI [47]: > 100 µM
GI50 [48]: 15 µM
TGI [48]: 32.1 µM
GI50 [49]: 28.4 µM
TGI [49]: > 100 µM
GI50 [50]: 31.4 µM
TGI [50]: > 100 µM
GI50 [51]: 34.5 µM
TGI [51]: > 100 µM
GI50 [52]: 37.1 µM
TGI [52]: > 100 µM
GI50 [53]: 18.5 µM
TGI [53]: 42.9 µM
GI50 [54]: 33.6 µM
TGI [54]: > 100 µM
GI50 [55]: 19.1 µM
TGI [55]: 42.8 µM
GI50 [56]: 18.1 µM
TGI [56]: 44.2 µM
